SMILES strings stand for the structures.

This is an account of results in patent US20260200928A1, “THERAPEUTIC COMPOUNDS” (Sanofi, priority 2022, published 2026).

The assay addresses T1, human IL-17A (Homo sapiens, UniProt Q16552).
T1 construct: purchased R&D Systems 7955-IL/CF
T1 sequence (Q16552 24-155): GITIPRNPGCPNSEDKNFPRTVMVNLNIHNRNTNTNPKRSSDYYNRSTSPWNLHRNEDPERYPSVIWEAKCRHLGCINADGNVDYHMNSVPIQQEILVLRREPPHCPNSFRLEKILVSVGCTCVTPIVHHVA
Nature of the assay: IL-17A AlphaLISA competition assay (block of IL-17A binding to its receptor IL-17RA). As to conditions: mean IC50 (n≥2), block of IL-17A binding to IL-17RA. The method, boiled down: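 Human recombinant IL-17A (7.5 nM stock) pre-incubated 30 min at RT with compound, then IL-17RA/Fc (5 nM stock) added for 90 min; AlphaLISA read with anti-Fc acceptor beads, biotinylated anti-IL-17A antibody (5 nM) and streptavidin donor beads (3 h, dark). IC50 from 4-parameter logistic fit, normalised to DMSO and 4 μM reference inhibitor; n≥2.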
For `COCC(c1ccnc(NC(=O)[C@@H](NC(=O)c2ncncc2C)[C@H]2CC[C@H](C)CC2)c1)N1C[C@H](C(F)(F)F)NC1=O` (stereo partly drawn) [Example 135, N-((1S)-2-((4-(2-methoxy-1-((S)-2-oxo-4-(trifluoromethyl)imidazolidin-1-yl)ethyl)pyridin-2-yl)amino)-1-((1r,4S)-4-methylcyclohexyl)-2-oxoethyl)-5-methylpyrimidine-4-carboxamide], the concentration for half-maximal inhibition (IC50) (usually the midpoint of a concentration-inhibition curve) is 1.46 µM.

`COCC(c1ccnc(NC(=O)[C@@H](NC(=O)Cc2cc(C)no2)[C@H]2CC[C@H](C)CC2)c1)N1C[C@@H](C(F)(F)F)NC1=O` (single isomer, unassigned) [Example 123] registered a half-maximal inhibitory concentration (IC50) of 0.065 µM.

The compound `COC[C@H](c1ccnc(NC(=O)C(NC(=O)c2nonc2C2CC2)C2CCC(F)CC2)c1)N1C[C@@H](C(F)(F)F)NC1=O` (single isomer, unassigned) [Example 276] returned a 50% inhibitory concentration (IC50) of 0.024 µM. This IC50 is about 2.7-fold lower than that of the compound before.

The compound `CCn1nccc1C(=O)N[C@H](C(=O)Nc1cc(C[C@H]2C[C@@H](C(F)(F)F)NC2=O)ccn1)[C@H]1CC[C@H](C)CC1` [Example 155, 1-ethyl-N—((S)-1-((1r,4S)-4-methylcyclohexyl)-2-oxo-2-((4-(((3S,5S)-2-oxo-5-(trifluoromethyl)pyrrolidin-3-yl)methyl)pyridin-2-yl)amino)ethyl)-1H-pyrazole-5-carboxamide] gave an IC50 of 0.029 µM.

`COC[C@H](c1ccnc(NC(=O)[C@@H](NC(=O)c2conc2C)C2CCC(F)(F)CC2)c1)N1C[C@@H](C(F)(F)F)NC1=O` [Example 194, N-((S)-1-(4,4-difluorocyclohexyl)-2-((4-((S)-2-methoxy-1-((S)-2-oxo-4-(trifluoromethyl)imidazolidin-1-yl)ethyl)pyridin-2-yl)amino)-2-oxoethyl)-3-methylisoxazole-4-carboxamide] gave a concentration for half-maximal inhibition (IC50) of 0.068 µM.

With `COCC(c1ccnc(NC(=O)[C@@H](NC(=O)c2nonc2C2CC2)[C@H]2CC[C@H](C)CC2)c1)N1C[C@@H](C(F)(F)F)NC1=O` (single isomer, unassigned) [Example 58], the half-inhibitory concentration (IC50) turned out to be 0.011 µM.

`CC(C)(C)OC(=O)N[C@H](C(=O)Nc1cc(CN2C(=O)NC(C)(C)C2=O)ccn1)C1CCC(F)(F)CC1` [Example 27, Tert-butyl (S)-(1-(4,4-difluorocyclohexyl)-2-((4-((4,4-dimethyl-2,5-dioxoimidazolidin-1-yl)methyl)pyridin-2-yl)amino)-2-oxoethyl)carbamate] yielded a 50% inhibitory concentration (IC50) of 14.9 µM. This IC50 is about 1400-fold higher than that of the compound before.

Compound `CCn1nccc1C(=O)N[C@H](C(=O)Nc1cc(C(COC)N2C[C@@H](C(F)(F)F)NC2=O)ccn1)[C@H]1CC[C@H](C)CC1` (single isomer, unassigned) [Example 124] had an IC50 of 0.02 µM.

With `COC[C@H](c1ccnc(NC(=O)[C@@H](NC(=O)c2ccnn2C(C)C)C2CCC(F)(F)CC2)c1)N1C[C@@H](C(F)(F)F)NC1=O` [Example 203, N-((S)-1-(4,4-difluorocyclohexyl)-2-((4-((S)-2-methoxy-1-((S)-2-oxo-4-(trifluoromethyl)imidazolidin-1-yl)ethyl)pyridin-2-yl)amino)-2-oxoethyl)-1-isopropyl-1H-pyrazole-5-carboxamide], the half-inhibitory concentration (IC50) turned out to be 0.09 µM. Compared with the last compound, the IC50 is about 4.5-fold higher.

The compound `CN1C[C@H]2[C@@H]([C@H]1C(=O)N[C@H](C(=O)Nc1cc(C(NC(=O)CCC(F)(F)F)C3CC3)ccn1)C(C1CC1)C1CC1)C2(C)C` (single isomer, unassigned) [Example 56] registered an IC50 of 7.42 µM. Compared with the last compound, the IC50 is about 82-fold higher.

For the compound `CN1C(=O)N(Cc2ccnc(NC(=O)[C@@H](NC(=O)OC(C)(C)C)[C@H]3CC[C@H](C)CC3)c2)CC12CCC2` [Example 23, Tert-butyl ((S)-2-((4-((5-methyl-6-oxo-5,7-diazaspiro[3.4]octan-7-yl)methyl)pyridin-2-yl)amino)-1-((1r,4S)-4-methylcyclohexyl)-2-oxoethyl)carbamate], the half-inhibitory concentration (IC50) is 6.95 µM.

Regarding `COC[C@H](c1ccnc(NC(=O)[C@@H](NC(=O)c2ccnn2C)C2CCC(F)(F)CC2)c1)N1C[C@@H](C(F)(F)F)NC1=O` [Example 202, N-((S)-1-(4,4-difluorocyclohexyl)-2-((4-((S)-2-methoxy-1-((S)-2-oxo-4-(trifluoromethyl)imidazolidin-1-yl)ethyl)pyridin-2-yl)amino)-2-oxoethyl)-1-methyl-1H-pyrazole-5-carboxamide], the IC50 was found to be 0.07 µM.

With `C[C@H]1CC[C@@H]([C@H](NC(=O)c2nonc2C2CC2)C(=O)Nc2cc(CN3C[C@@H](C(F)(F)F)NC3=O)ccn2)CC1` [Example 263, 4-Cyclopropyl-N—((S)-1-((1s,4R)-4-methylcyclohexyl)-2-oxo-2-((4-(((S)-2-oxo-4-(trifluoromethyl)imidazolidin-1-yl)methyl)pyridin-2-yl)amino)ethyl)-1,2,5-oxadiazole-3-carboxamide], the concentration for half-maximal inhibition (IC50) was 0.09 µM.

In turn, `CC(C)(C)OC(=O)N[C@H](C(=O)Nc1cc(C(NC(=O)CCC(F)(F)F)C2CC2)ccn1)C1CCC(F)(F)CC1` (single isomer, unassigned; diastereomer 1) [Example 72] yielded an IC50 of 0.547 µM.

Take `Cn1nccc1C(=O)NC(C(=O)Nc1cc(Cc2cccc(=O)n2C)ccn1)C1CCC(F)(F)CC1` (centres unmarked) [Example 37, N-(1-(4,4-difluorocyclohexyl)-2-((4-((1-methyl-6-oxo-1,6-dihydropyridin-2-yl)methyl)pyridin-2-yl)amino)-2-oxoethyl)-1-methyl-1H-pyrazole-5-carboxamide]: the concentration for half-maximal inhibition (IC50) turned out to be 25.4 µM.

`COC[C@H](c1ccnc(NC(=O)C(NC(=O)c2nonc2C2CC2)C2CCC(F)CC2)c1)N1C[C@@H](C(F)(F)F)NC1=O` (single isomer, unassigned) [Example 278] had a concentration for half-maximal inhibition (IC50) of 1.89 µM. Compared with the last compound, the IC50 is about 13-fold lower.

Regarding `CCn1nccc1C(=O)N[C@H](C(=O)Nc1cc([C@@H](COC)N2CC(F)(F)CNC2=O)ccn1)C1CCC(F)(F)CC1` [Example 179, N-((S)-2-((4-((S)-1-(5,5-difluoro-2-oxotetrahydropyrimidin-1(2H)-yl)-2-methoxyethyl)pyridin-2-yl)amino)-1-(4,4-difluorocyclohexyl)-2-oxoethyl)-1-ethyl-1H-pyrazole-5-carboxamide], the 50% inhibitory concentration (IC50) was found to be 0.083 µM.

In the case of `CCc1nonc1C(=O)N[C@H](C(=O)Nc1cc([C@@H](COC)N2CC(F)(F)CNC2=O)ccn1)C1CCC(F)(F)CC1` [Example 182, N-((S)-2-((4-((S)-1-(5,5-difluoro-2-oxotetrahydropyrimidin-1(2H)-yl)-2-methoxyethyl)pyridin-2-yl)amino)-1-(4,4-difluorocyclohexyl)-2-oxoethyl)-4-ethyl-1,2,5-oxadiazole-3-carboxamide], the half-maximal inhibitory concentration (IC50) came to 0.019 µM.

Regarding `CC(c1ccnc(NC(=O)[C@@H](NC(=O)c2ccnn2C)C2CCC(F)(F)CC2)c1)N1C[C@@H](C(F)(F)F)NC1=O` (single isomer, unassigned) [Example 171, N-((1S)-1-(4,4-difluorocyclohexyl)-2-oxo-2-((4-((R or S)-1-((S)-2-oxo-4-(trifluoromethyl)imidazolidin-1-yl)ethyl)pyridin-2-yl)amino)ethyl)-1-methyl-1H-pyrazole-5-carboxamide], the IC50 was 0.067 µM.

Compound `CCc1nocc1C(=O)N[C@H](C(=O)Nc1cc([C@@H](COC)N2C[C@@H](C(F)(F)F)NC2=O)ccn1)C1CCC(F)(F)CC1` [Example 198, N-((S)-1-(4,4-difluorocyclohexyl)-2-((4-((S)-2-methoxy-1-((S)-2-oxo-4-(trifluoromethyl)imidazolidin-1-yl)ethyl)pyridin-2-yl)amino)-2-oxoethyl)-3-ethylisoxazole-4-carboxamide] displayed an IC50 of 0.047 µM.

With `Cn1nccc1C(=O)N[C@H](C(=O)Nc1cc(C(NC(=O)CCC(F)(F)F)C2CC2)ccn1)C(C1CC1)C1CC1` (single isomer, unassigned) [Example 38], the concentration for half-maximal inhibition (IC50) was found to be 0.448 µM.

As for `CC(C)(C)OC(=O)N[C@H](C(=O)Nc1cc(C(NC(=O)CCC(F)(F)F)C2CC2)ccn1)[C@H]1CC[C@H](C)CC1` (single isomer, unassigned) [Example 73], the half-inhibitory concentration (IC50) came out at 1.01 µM.

`CC(C)n1nccc1C(=O)N[C@H](C(=O)Nc1cc(CN2C[C@@H](C(F)(F)F)NC2=O)ccn1)C1CCC(F)(F)CC1` [Example 12, N-((S)-1-(4,4-difluorocyclohexyl)-2-oxo-2-((4-(((S)-2-oxo-4-(trifluoromethyl)imidazolidin-1-yl)methyl)pyridin-2-yl)amino)ethyl)-1-isopropyl-1H-pyrazole-5-carboxamide] had an IC50 of 0.106 µM.

In turn, `Cc1cnn(C)c1Cc1ccnc(NC(=O)[C@@H](NC(=O)OC(C)(C)C)[C@H]2CC[C@H](C)CC2)c1` [Example 51, tert-butyl ((S)-2-((4-((1,4-dimethyl-1H-pyrazol-5-yl)methyl)pyridin-2-yl)amino)-1-((1r,4S)-4-methylcyclohexyl)-2-oxoethyl)carbamate] displayed a concentration for half-maximal inhibition (IC50) of 2.08 µM.

For `O=C(N[C@H](C(=O)Nc1cc(C(C2CC2)N2C[C@@H](C(F)(F)F)NC2=O)ccn1)C1CCC(F)(F)CC1)c1nonc1C1CC1` (single isomer, unassigned) [Example 162, 4-Cyclopropyl-N—((S)-2-((4-((R or S)-cyclopropyl((S)-2-oxo-4-(trifluoromethyl)imidazolidin-1-yl)methyl)pyridin-2-yl)amino)-1-(4,4-difluorocyclohexyl)-2-oxoethyl)-1,2,5-oxadiazole-3-carboxamide], the IC50 is 0.444 µM.

The compound `Cn1nccc1C(=O)N[C@H](C(=O)Nc1cc(CN2C[C@@H](C(F)(F)F)NC2=O)ccn1)[C@H]1CC[C@H](C)CC1` [Example 3, 1-Methyl-N—((S)-1-((1r,4S)-4-methylcyclohexyl)-2-oxo-2-((4-(((S)-2-oxo-4-(trifluoromethyl)imidazolidin-1-yl)methyl)pyridin-2-yl)amino)ethyl)-1H-pyrazole-5-carboxamide] came in with an IC50 of 0.085 µM.
